Results published in ChEMBL document CHEMBL1121558, “Studies on several 7-substituted N,N-dimethyltryptamines” (J Med Chem, 1980).

Key:
[1] = biological target: Serotonin (5-HT) receptor; assay: Compound was evaluated for binding affinity towards 5-hydroxytryptamine receptor in isolated rat fundus preparation measured as pA2
[2] = organism: Rattus norvegicus; assay: Effective dose was determined for the behavioral (interoceptive cues) activity of rats; format: functional

| SMILES | pA2 [1] | ED50 [2] [mg/kg] |
| --- | --- | --- |
| COc1cc2c(CCN(C)C)c[nH]c2c(OC)c1OC | 5.98 | – |
| COc1cc(OC)c2[nH]cc(CCN(C)C)c2c1 | 5.5 | 3.38 |
| Cc1cccc2c(CCN(C)C)c[nH]c12 | 6.29 | – |
| COc1cc(C)c2[nH]cc(CCN(C)C)c2c1 | 6.61 | 1.54 |
| CCc1cccc2c(CCN(C)C)c[nH]c12 | 6.31 | – |
| CN(C)CCc1c[nH]c2c(Br)cccc12 | 6.51 | – |
| COc1ccc2c(CCN(C)C)c[nH]c2c1 | – | 0.4 |
| COc1ccc(OC)c(CC(C)N)c1 (stereo not given) | – | 0.59 |
